These results are taken from publication PMC6811792, “The Binding Affinity of Small Molecules with Yam Tyrosinase (Catechol Oxidase): A Biophysical Study” (Biochemistry Research International, 2019).

Like-named read-outs stand apart in the source and are kept apart here.

The target in test [1] is yam tyrosinase. The test is described as follows: SPR interaction kinetics of single analytes with immobilized yam tyrosinase, two-state model. It is filed as binding, Amorphophallus paeoniifolius. The method, then: SPR interaction studies were carried out using a Biocore X100 optical biosensor (GE Healthcare Life Sciences, Uppsala, Sweden). All the SPR measurements were performed in phosphate buffer saline (PBS; 10.1 mM Na2PO4, 1.8 mM KH2PO4, 137 mM NaCl, 2.7 mM KCl, pH 7.4, 0.005% P20). Initially, working dilutions were prepared from the analyte stock solution in PBS only and then allowed to flow through the sensor surface. Biocore control software version 2.2 was used for data collection. Refractive index changes as a function of time under constant flow condition are monitored by the system, and accordingly, experiments were performed. […] There is an inline subtraction of reference surface during the run. This change is usually reported in terms of response units (RUs). The surface of the chip is washed with PBS (running buffer) between each concentration.
The method of amine coupling was employed for the immobilization of yam tyrosinase which was dissolved (50 μg/mL) in 0.1 M sodium acetate buffer with pH value 4.5 as per the pH scouting study in [15]. Yam tyrosinase was immobilized on sensor chip series S CM5. Flow cell on the chip surface was activated for 7 min using a 1 : 1 mixture of 100 mM […] (EDC) and 100 mM N-hydroxysuccinimide (NHS) (both dissolved in water), and subsequently, tyrosinase was injected for 7 min, followed by injection of 1 M ethanolamine, pH 8.5 to block nonreactive sites. For this study, flow cell 3 was blank immobilized (without protein) as reference.
Crocin and kojic acid are natural tyrosinase inhibitors, whereas hydroquinone is a synthetic inhibitor. The grouping of inhibitors was simply based on the efficiency, size, solubility, and origin of inhibitors. […] PBS was used as the running buffer. The flow rate was constant (45 μL/min) throughout the experiment. The contact time (association time) and dissociation time were fixed to 120 s. Experiments were performed with different concentrations of individual inhibitors based on their solubilities: crocin (0.156–2.5 mM), hydroquinone (0.625–10 mM), kojic acid ([…]), and L-DOPA (5–80 mM). These concentrations were optimized by repeating the SPR experiments several times to achieve appropriate binding interactions. […] Regeneration was carried out with 10 mM glycine pH 2.5 for 30 s. Binding analysis was evaluated using the heterogeneous analyte kinetics model. After each cycle of regeneration, the activity of the enzyme was checked by injecting a single concentration of L-DOPA, and RU response was observed. The data analyses were done with Biacore X100 evaluation software version 2.2, and data were fit to two-state binding and/or heterogeneous analyte binding.
Flow rate was maintained at 45 μL/min. Contact time and dissociation time were kept at 120 s and 200 s. Regeneration was carried out using 10 mM glycine HCl at pH 2.5 for 30 s and at 30 μL/min. The data analysis was performed with Biacore X100 evaluation software version 2.0.1, and data were fit to two states. Each concentration represents sensorgram in the increasing order of curves. Crocin with concentrations (0.156, 0.312, 0.625, 1.25, and 2.5 mM) was injected over the enzyme surface (a). Kojic acid with concentrations (0.0156, 0.0312, 0.0625, 0.125, and 0.25 mM) was injected over the enzyme surface (b). Hydroquinone with concentrations (0.625, 1.25, 2.5, 5.0, and 10 mM) was injected over enzyme surface (c). L-DOPA with concentrations (5, 10, 20, 40 and 80 mM) was injected over the enzyme surface (d).

Test [2] addresses yam tyrosinase. The test is described as follows: Diphenolase activity assay (dopachrome at 475 nm, L-DOPA substrate). In kind it is biochemical, Amorphophallus paeoniifolius. The settings on record: 2 mM L-DOPA, pH 7.0, 30°C. The method, then: The reaction mixture (3 mL) contained 2 mM of L-DOPA in 50 mM potassium phosphate buffer (pH 7.0); a portion of 100 μL of the enzyme was used for the activity assay. The reaction was carried out at a constant temperature of 30°C using a Shimadzu UV visible spectrophotometer. IC50 values were calculated as per the formula reported earlier.

In test [3] the target is yam tyrosinase. On the set-up: method as in PMID 29246874. The settings on record: SPR, two-state model, substrate; cited from earlier work.

In the case of `CC(/C=C/C=C(\C)C(=O)O[C@@H]1O[C@H](CO[C@@H]2O[C@H](CO)[C@@H](O)[C@H](O)[C@H]2O)[C@@H](O)[C@H](O)[C@H]1O)=C\C=C\C=C(C)\C=C\C=C(/C)C(=O)O[C@@H]1O[C@H](CO[C@@H]2O[C@H](CO)[C@@H](O)[C@H](O)[C@H]2O)[C@@H](O)[C@H](O)[C@H]1O` [Crocin, crocin], in test [1] (PBS pH 7.4), the Kd is 1660 µM, the k a1 worked out at 224 ± 11 M⁻¹ s⁻¹, the “k a2” value turned out to be 0.003525 ± 9.7e-05 s⁻¹ and the “k d1” value worked out at 0.5772 ± 0.025 s⁻¹. Moreover, in test [1] (PBS pH 7.4), the “k d2” value stood at 0.006429 ± 0.00014 s⁻¹. For the same compound, in test [1] (PBS pH 7.4, listed as crocin), the Kd was 1700 µM. This compound also registered an IC50 in test [2] of 1000 µM.

Consider `Oc1ccc(O)cc1` [Hydroquinone, hydroquinone], for which, in test [1] (PBS pH 7.4), the k a1 turned out to be 2.89 ± 0.13 M⁻¹ s⁻¹, the “k a2” value was 0.001569 ± 3.5e-05 s⁻¹, the “k d1” value amounted to 0.9166 ± 0.02 s⁻¹ and the “k d2” value was 0.005185 ± 0.00013 s⁻¹. For the same compound, the concentration for half-maximal inhibition (IC50) in test [2] is 1500 µM.

For `O=c1cc(CO)occ1O` [Kojic acid], in test [1] (PBS pH 7.4), the Kd was 6.39 µM, the k a1 is 334 ± 16 M⁻¹ s⁻¹, the “k a2” value was 0.00539 ± 7.8e-05 s⁻¹ and the “k d1” value is 0.03182 ± 0.0013 s⁻¹. The same compound registered a half-inhibitory concentration (IC50) in test [2] of 0.1 µM.

As to `N[C@@H](Cc1ccc(O)c(O)c1)C(=O)O` [L-DOPA, L-3 dihydroxyphenylalanine], in test [3], the Kd was 1.35 µM, the “k a1” value is reported as 9.54 × 10^4 1/ms, the “k a2” value is given as 0.001544 ± 1.50 × 10^4 1/s and the “k d1” value is 0.5089 ± 0.085 s⁻¹. In test [3], the “k d2” value is 0.000523 ± 8.4e-05 s⁻¹.

What is called Kd is the equilibrium constant for the complex coming apart. In general, IC50 refers to the point on the concentration scale where inhibition reaches its midpoint. A higher IC50 goes with weaker potency in that assay.
